Test system: chiens Beagle
Experiment: Anti-emetic test: apomorphine-induced vomiting in Beagle dogs
Type: in vivo
Details: for Diminution par rapport au témoin (%): percentage decrease in number of vomitings vs control trial, compound about 1 mg/kg intramuscular at time 0, apomorphine about 100 µg/kg subcutaneous 30 minutes later
Procedure: L'étude a été effectuée sur des chiens Beagle provenant de l'élevage du Centre de RecherchesBiologiques de Baugy.
On a tout d'abord effectué un essai témoin, puis six jours après, on a testé notamment les quatre composés mentionnés ci-dessus.
Pendant l'essai témoin, les animaux reçoivent 100 µg/kg d'apomorphine, qui provoque des vomissements,
Lorsqu'on teste les produits conformes à l'invention et le racémique du composé n° 1 135, les animaux reçoivent : • - à l'instant 0, une injection intra-musculaire du composé étudié à raison d'environ 1 mg/kg • - 30 minutes plus tard, une injection sous- cutanée d'apomorphine est effectuée, d'environ 100 µg/kg.
Les résultats donnés ci-après correspondent aux pourcentages de diminution du nombre de vomissements par rapport à l'essai témoin.

Structure (SMILES)	Diminution par rapport au témoin (%)	nombre de vomissements / activité (result in words, same test (about 1 mg/kg i.m., apomorphine about 100 µg/kg s.c. 30 min later))
CCN1CCC[C@H]1CNS(=O)(=O)c1cc(Cl)c(OC)cc1OC [Composé n° 1 138]	20	
CCN1CCCC1CNS(=O)(=O)c1cc(Cl)c(N)cc1OC (racemic) [racémique du lévo-gyre n° 1 135, reference compound]	10	
CCN1CCCCCC1CNS(=O)(=O)c1cc(Cl)c(N)cc1OC (racemic) [Composé n° 1 149, amino-4 chloro-5 méthoxy-2 N-(N-éthyl méthyl-2 azépinyl) benzènesulfonamide]	60	
CCN1CCC[C@H]1CNS(=O)(=O)c1cc(Cl)c(N)cc1OC [Composé n° 1 135]	50	beaucoup plus actif que le racémique correspondant
